Values quoted from earlier work as cited in PubChem BioAssay AID1259409 (Chemical Carcinogenesis Research Information System (CCRIS), 2018).

Test system: rodent chemically induced tumor inhibition, incidence and multiplicity
Test: CCRIS tumor inhibitor studies
Description: The CCRIS database contains chemical records with carcinogenicity, mutagenicity, tumor promotion, and tumor inhibition test results. It was developed by the National Cancer Institute (NCI). Data are derived from studies cited in primary journals, current awareness tools, NCI reports, and other sources. Test results have been reviewed by experts in carcinogenesis and mutagenesis.
CCRIS provides historical information from the years 1985 - 2011. It is no longer updated.
This is an archive assay for CCRIS tumor inhibitor studies.

Compound | tumour outcome (control, treated, inhibition, significance) (Carcinogen: 1,2-DIMETHYLHYDRAZINE, 540-73-8, Dose [Inhibitor]: 0, 1% IN DIET BEGINNING 1 WK POST LAST CARCINOGEN DOSE AND CONTINUING FOR 36 WK (STUDY DURATION: 40 WK), Route [Inhibitor]: ORAL, Species: RAT, Strain/Sex: F344/MALE, Target Tissue: Type of Lesion: COLON: ADENOMA, Dose [Carcinogen]: 20 MG/KG 1/WK FOR 4 WK, Promoter: NONE USED) | tumour outcome (control, treated, inhibition, significance) (Carcinogen: 1,2-DIMETHYLHYDRAZINE, 540-73-8, Dose [Inhibitor]: 0, 1% IN DIET BEGINNING 1 WK POST LAST CARCINOGEN DOSE AND CONTINUING FOR 36 WK (STUDY DURATION: 40 WK), Route [Inhibitor]: ORAL, Species: RAT, Strain/Sex: F344/MALE, Target Tissue: Type of Lesion: COLON: CARCINOMA, Dose [Carcinogen]: 20 MG/KG 1/WK FOR 4 WK, Promoter: NONE USED) | tumour outcome (control, treated, inhibition, significance) (Carcinogen: 7,12-DIMETHYLBENZ(A)ANTHRACENE, 57-97-6, Dose [Inhibitor]: 0.3% IN HIGH SATURATED FAT DIET (STUDY DURATION: 32 WK), Route [Inhibitor]: ORAL, Species: RAT, Strain/Sex: SPRAGUE-DAWLEY/FEMALE, Target Tissue: Type of Lesion: MAMMARY GLAND: PARENCHYMAL CARCINOMA, Dose [Carcinogen]: 10 MG IN 1 ML CORN OIL ONCE AT 50 D OF AGE, Promoter: NONE USED) | tumour outcome (control, treated, inhibition, significance) (Carcinogen: 7,12-DIMETHYLBENZ[A]ANTHRACENE, 57-97-6, Dose [Inhibitor]: 0, 20 UMOL IN 0.4 ML ACETONE 20 MIN PRIOR TO EACH PROMOTER DOSE (STUDY DURATION: 47 WK), Route [Inhibitor]: DERMAL, Species: MOUSE, Strain/Sex: CF-1/FEMALE, Target Tissue: Type of Lesion: SKIN: CARCINOMA, Dose [Carcinogen]: 100 NMOL IN 0.2 ML ACETONE ONCE) | tumour outcome (control, treated, inhibition, significance) (Carcinogen: 7,12-DIMETHYLBENZ[A]ANTHRACENE, 57-97-6, Dose [Inhibitor]: 0, 20 UMOL IN 0.4 ML ACETONE 20 MIN PRIOR TO EACH PROMOTER DOSE (STUDY DURATION: 47 WK), Route [Inhibitor]: DERMAL, Species: MOUSE, Strain/Sex: CF-1/FEMALE, Target Tissue: Type of Lesion: SKIN: PAPILLOMA, Dose [Carcinogen]: 100 NMOL IN 0.2 ML ACETONE ONCE) | tumour outcome (control, treated, inhibition, significance) (Carcinogen: 7,12-DIMETHYLBENZ[A]ANTHRACENE, 57-97-6, Dose [Inhibitor]: 0.3% IN HIGH POLYUNSATURATED FAT DIET (STUDY DURATION: 32 WK), Route [Inhibitor]: ORAL, Species: RAT, Strain/Sex: SPRAGUE-DAWLEY/FEMALE, Target Tissue: Type of Lesion: MAMMARY GLAND: PARENCHYMAL CARCINOMA, Dose [Carcinogen]: 10 MG IN 1 ML CORN OIL ONCE AT 50 D OF AGE, 1X, Promoter: NONE USED) | tumour outcome (control, treated, inhibition, significance) (Carcinogen: 7,12-DIMETHYLBENZ[A]ANTHRACENE, 57-97-6, Dose [Inhibitor]: 0.3% IN HIGH POLYUNSATURATED FAT DIET DAILY STARTING 29 D BEFORE CARCINOGEN TREATMENT AND CONTINUING FOR THE DURATION OF, Route [Inhibitor]: ORAL, Species: RAT, Strain/Sex: SPRAGUE-DAWLEY/FEMALE, Target Tissue: Type of Lesion: MAMMARY GLAND: ADENOCARCINOMA, Dose [Carcinogen]: 10 MG IN 1 ML STRIPPED CORN OIL ONCE AT AGE 50 D, Promoter: NONE USED) | tumour outcome (control, treated, inhibition, significance) (Carcinogen: 7,12-DIMETHYLBENZ[A]ANTHRACENE, 57-97-6, Dose [Inhibitor]: 0.3% IN HIGH SATURATED FAT DIET DAILY STARTING 29 D BEFORE CARCINOGEN TREATMENT AND CONTINUING FOR THE DURATION OF THE S, Route [Inhibitor]: ORAL, Species: RAT, Strain/Sex: SPRAGUE-DAWLEY/FEMALE, Target Tissue: Type of Lesion: MAMMARY GLAND: ADENOCARCINOMA, Dose [Carcinogen]: 10 MG IN 1 ML STRIPPED CORN OIL ONCE AT AGE 50 D, Promoter: NONE USED) | tumour outcome (control, treated, inhibition, significance) (Carcinogen: 7,12-DIMETHYLBENZ[A]ANTHRACENE, 57-97-6, Dose [Inhibitor]: 0.3% IN LOW FAT DIET (STUDY DURATION: 32 WK), Route [Inhibitor]: ORAL, Species: RAT, Strain/Sex: SPRAGUE-DAWLEY/FEMALE, Target Tissue: Type of Lesion: MAMMARY GLAND: PARENCHYMAL CARCINOMA, Dose [Carcinogen]: 10 MG IN 1 ML CORN OIL ONCE AT 50 D OF AGE, Promoter: NONE USED) | tumour outcome (control, treated, inhibition, significance) (Carcinogen: 7,12-DIMETHYLBENZ[A]ANTHRACENE, 57-97-6, Dose [Inhibitor]: 0.3% IN LOW FAT DIET DAILY STARTING 29 D BEFORE CARCINOGEN TREATMENT AND CONTINUING FOR THE DURATION OF THE STUDY (STUDY, Route [Inhibitor]: ORAL, Species: RAT, Strain/Sex: SPRAGUE-DAWLEY/FEMALE, Target Tissue: Type of Lesion: MAMMARY GLAND: ADENOCARCINOMA, Dose [Carcinogen]: 10 MG IN 1 ML STRIPPED CORN OIL ONCE AT AGE 50 D, Promoter: NONE USED) | tumour outcome (control, treated, inhibition, significance) (Carcinogen: 7,12-DIMETHYLBENZ[A]ANTHRACENE, 57-97-6, Dose [Inhibitor]: 1.0% IN POWDERED DIET BEGINNING 1 WK POST CARCINOGEN DOSE FOR 51 WK (STUDY DURATION: 52 WK), Route [Inhibitor]: ORAL, Species: RAT, Strain/Sex: SPRAGUE-DAWLEY/FEMALE, Target Tissue: Type of Lesion: EAR DUCT: BENIGN TUMOR, Dose [Carcinogen]: 2.5 MG/100 G BW IN 0.5 ML SESAME OIL ONCE, Promoter: NONE USED) | tumour outcome (control, treated, inhibition, significance) (Carcinogen: 7,12-DIMETHYLBENZ[A]ANTHRACENE, 57-97-6, Dose [Inhibitor]: 1.0% IN POWDERED DIET BEGINNING 1 WK POST CARCINOGEN DOSE FOR 51 WK (STUDY DURATION: 52 WK), Route [Inhibitor]: ORAL, Species: RAT, Strain/Sex: SPRAGUE-DAWLEY/FEMALE, Target Tissue: Type of Lesion: MAMMARY GLAND: CARCINOMA, Dose [Carcinogen]: 2.5 MG/100 G BW IN 0.5 ML SESAME OIL ONCE, Promoter: NONE USED) | tumour outcome (control, treated, inhibition, significance) (Carcinogen: 7,12-DIMETHYLBENZ[A]ANTHRACENE, 57-97-6, Dose [Inhibitor]: 1.0% IN POWDERED DIET BEGINNING 1 WK POST CARCINOGEN DOSE FOR 51 WK (STUDY DURATION: 52 WK), Route [Inhibitor]: ORAL, Species: RAT, Strain/Sex: SPRAGUE-DAWLEY/FEMALE, Target Tissue: Type of Lesion: MAMMARY GLAND: FIBROADENOMA, Dose [Carcinogen]: 2.5 MG/100 G BW IN 0.5 ML SESAME OIL ONCE, Promoter: NONE USED) | tumour outcome (control, treated, inhibition, significance) (Carcinogen: 3-METHYLCHOLANTHRENE, 56-49-5, Dose [Inhibitor]: 0, 1/200 OF A PILL CONTAINING 0.25 UG ETHINYLESTRADIOL AND 2.5 UG NORGESTREL 1/D FOR 60 D (STUDY DURATION: 60 D), Route [Inhibitor]: ORAL, Species: MOUSE, Strain/Sex: SWISS/FEMALE, Target Tissue: Type of Lesion: UTERINE CERVIX: TUMOR, Dose [Carcinogen]: 300 UG IN BEESWAX IMPREGNATED COTTON THREAD INSERTED INTO CANAL OF UTERINE CERVIX FOR DURATION OF STUDY, Promoter: NONE USED) | tumour outcome (control, treated, inhibition, significance) (Carcinogen: 3-METHYLCHOLANTHRENE, 56-49-5, Dose [Inhibitor]: 0, 1/200 OF A PILL CONTAINING 0.25 UG ETHINYLESTRADIOL AND 2.5 UG NORGESTREL 1/D FOR 90 D (STUDY DURATION: 90 D), Route [Inhibitor]: ORAL, Species: MOUSE, Strain/Sex: SWISS/FEMALE, Target Tissue: Type of Lesion: UTERINE CERVIX: TUMOR, Dose [Carcinogen]: 300 UG IN BEESWAX IMPREGNATED COTTON THREAD INSERTED INTO CANAL OF UTERINE CERVIX FOR DURATION OF STUDY, Promoter: NONE USED) | tumour outcome (control, treated, inhibition, significance) (Carcinogen: 3-METHYLCHOLANTHRENE, 56-49-5, Dose [Inhibitor]: 0, 1/2000 OF A PILL CONTAINING 0.025 UG ETHINYLESTRADIOL AND 0.25 UG OF NORGESTREL 1/D FOR 60 D (STUDY DURATION: 60 D), Route [Inhibitor]: ORAL, Species: MOUSE, Strain/Sex: SWISS/FEMALE, Target Tissue: Type of Lesion: UTERINE CERVIX: TUMOR, Dose [Carcinogen]: 300 UG IN BEESWAX IMPREGNATED COTTON THREAD INSERTED INTO CANAL OF UTERINE CERVIX FOR DURATION OF STUDY, Promoter: NONE USED) | tumour outcome (control, treated, inhibition, significance) (Carcinogen: 3-METHYLCHOLANTHRENE, 56-49-5, Dose [Inhibitor]: 0, 1/2000 OF A PILL CONTAINING 0.025 UG ETHINYLESTRADIOL AND 0.25 UG OF NORGESTREL 1/D FOR 90 D (STUDY DURATION: 90 D), Route [Inhibitor]: ORAL, Species: MOUSE, Strain/Sex: SWISS/FEMALE, Target Tissue: Type of Lesion: UTERINE CERVIX: TUMOR, Dose [Carcinogen]: 300 UG IN BEESWAX IMPREGNATED COTTON THREAD INSERTED INTO THE CANAL OF THE UTERINE CERVIX FOR THE DURATION OF STUDY, Promoter: NONE USED)
CCCOC(=O)c1cc(O)c(O)c(O)c1 | 1/20 (5%), 5/20 (25%), -400%, not calculated | 6/20 (30%), 6/20 (30%), 0% | 20/30 (67%), 8/30 (27%), 60%, not calculated | 67%, 8%, 88%, not calculated | 94%, 66%, 30%, not calculated | 30/30 (100%), 23/30 (77%), 23%, not calculated | 100%, 70%, 30%, not calculated | 65%, 35%, 46%, not calculated | 7/30 (23%), 4/30 (13%), 43%, not calculated | 35%, 15%, 57%, not calculated | 7/19 (37%), 3/20 (15%), 59%, not calculated | 6/19 (32%), 1/20 (5%), 84%, p<0.05 | 15/19 (79%), 4/20 (20%), 75%, p<0.001 | – | – | – | –
C#C[C@]1(O)CC[C@H]2[C@@H]3CCC4=CC(=O)CC[C@@H]4[C@H]3CC[C@@]21CC (tested in a mixture with another compound) | – | – | – | – | – | – | – | – | – | – | – | – | – | 2/23 (9%), 1/16 (6%), 33%, not significant | 6/23 (26%), 1/29 (3%), 88%, p<0.05 | 2/23 (9%), 0/22 (0%), 100%, not significant | 6/23 (26%), 1/30 (3%), 88%, p<0.05
